Reference: ChEMBL document CHEMBL5154842, “Unique Carbazole-Oxadiazole Derivatives as New Potential Antibiotics for Combating Gram-Positive and -Negative Bacteria” (J Med Chem, 2022)
Values after ≈ are worked out from the molar mass of the structure shown.

Tests used:
Assay type in all cases: functional
Staphylococcus aureus [1] = experiment: Antibacterial activity against methicillin-resistant Staphylococcus aureus N315 assessed as inhibition of bacterial growth incubated for 24 hrs by CLSI protocol based two fold serial dilution method
Enterococcus faecalis = experiment: Antibacterial activity against Enterococcus faecalis assessed as inhibition of bacterial growth incubated for 24 hrs by CLSI protocol based two fold serial dilution method
Staphylococcus aureus [2] = experiment: Antibacterial activity against Staphylococcus aureus assessed as inhibition of bacterial growth incubated for 24 hrs by CLSI protocol based two fold serial dilution method
Staphylococcus aureus [3] = experiment: Antibacterial activity against Staphylococcus aureus 25923 assessed as inhibition of bacterial growth incubated for 24 hrs by CLSI protocol based two fold serial dilution method
Staphylococcus aureus [4] = experiment: Antibacterial activity against Staphylococcus aureus 29213 assessed as inhibition of bacterial growth incubated for 24 hrs by CLSI protocol based two fold serial dilution method
Klebsiella pneumoniae = experiment: Antibacterial activity against Klebsiella pneumonia assessed as inhibition of bacterial growth incubated for 24 hrs by CLSI protocol based two fold serial dilution method
Escherichia coli [5] = experiment: Antibacterial activity against Escherichia coli assessed as inhibition of bacterial growth incubated for 24 hrs by CLSI protocol based two fold serial dilution method
Escherichia coli [6] = experiment: Antibacterial activity against Escherichia coli 25922 assessed as inhibition of bacterial growth incubated for 24 hrs by CLSI protocol based two fold serial dilution method
Pseudomonas aeruginosa [7] = experiment: Antibacterial activity against Pseudomonas aeruginosa assessed as inhibition of bacterial growth incubated for 24 hrs by CLSI protocol based two fold serial dilution method
Pseudomonas aeruginosa [8] = experiment: Antibacterial activity against Pseudomonas aeruginosa ATCC 27853 assessed as inhibition of bacterial growth incubated for 24 hrs by CLSI protocol based two fold serial dilution method
Acinetobacter baumannii = experiment: Antibacterial activity against Acinetobacter baumannii assessed as inhibition of bacterial growth incubated for 24 hrs by CLSI protocol based two fold serial dilution method

Structure (SMILES) | MIC (Staphylococcus aureus [1]) [µg/mL] | MIC (Enterococcus faecalis) [µg/mL] | MIC (Staphylococcus aureus [2]) [µg/mL] | MIC (Staphylococcus aureus [3]) [µg/mL] | MIC (Staphylococcus aureus [4]) [µg/mL] | MIC (Klebsiella pneumoniae) [µg/mL] | MIC (Escherichia coli [5]) [µg/mL] | MIC (Escherichia coli [6]) [µg/mL] | MIC (Pseudomonas aeruginosa [7]) [µg/mL] | MIC (Pseudomonas aeruginosa [8]) [µg/mL] | MIC (Acinetobacter baumannii) [µg/mL]
Sc1nnc(Cn2c3ccccc3c3c(OCc4ccc(Cl)cc4)cccc32)o1 | 256 (≈ 607 µM) | 256 (≈ 607 µM) | 256 (≈ 607 µM) | 256 (≈ 607 µM) | 256 (≈ 607 µM) | 256 (≈ 607 µM) | 256 (≈ 607 µM) | 4 (≈ 9.48 µM) | 256 (≈ 607 µM) | 256 (≈ 607 µM) | 256 (≈ 607 µM)
Fc1ccccc1COc1cccc2c1c1ccccc1n2Cc1nnc(S)o1 | 16 (≈ 39.5 µM) | 256 (≈ 631 µM) | 256 (≈ 631 µM) | 256 (≈ 631 µM) | 64 (≈ 158 µM) | 32 (≈ 78.9 µM) | 128 (≈ 316 µM) | 16 (≈ 39.5 µM) | 256 (≈ 631 µM) | 0.25 (≈ 0.617 µM) | 64 (≈ 158 µM)
CCn1c2ccccc2c2nnc(SCc3nnc(S)o3)nc21 | 256 (≈ 743 µM) | 256 (≈ 743 µM) | 256 (≈ 743 µM) | 256 (≈ 743 µM) | 256 (≈ 743 µM) | 256 (≈ 743 µM) | 256 (≈ 743 µM) | 256 (≈ 743 µM) | 256 (≈ 743 µM) | 256 (≈ 743 µM) | 256 (≈ 743 µM)
Fc1ccc(COc2cccc3c2c2ccccc2n3Cc2nnc(S)o2)cc1 | 1 (≈ 2.47 µM) | 2 (≈ 4.93 µM) | 256 (≈ 631 µM) | 2 (≈ 4.93 µM) | 8 (≈ 19.7 µM) | 4 (≈ 9.87 µM) | 0.25 (≈ 0.617 µM) | 2 (≈ 4.93 µM) | 256 (≈ 631 µM) | 8 (≈ 19.7 µM) | 4 (≈ 9.87 µM)
CN[C@H](CC(C)C)C(=O)N[C@H]1C(=O)N[C@@H](CC(N)=O)C(=O)N[C@H]2C(=O)N[C@H]3C(=O)N[C@H](C(=O)N[C@H](C(=O)O)c4cc(O)cc(O)c4-c4cc3ccc4O)[C@H](O)c3ccc(c(Cl)c3)Oc3cc2cc(c3O[C@@H]2O[C@H](CO)[C@@H](O)[C@H](O)[C@H]2O[C@H]2C[C@](C)(N)[C@H](O)[C@H](C)O2)Oc2ccc(cc2Cl)[C@H]1O [VANCOMYCIN] | – | 2 (≈ 1.38 µM) | – | – | – | – | – | – | – | – | –
CCCCCOc1cccc2c1c1ccccc1n2Cc1nnc(S)o1 | 256 (≈ 697 µM) | 256 (≈ 697 µM) | 256 (≈ 697 µM) | 256 (≈ 697 µM) | 256 (≈ 697 µM) | 256 (≈ 697 µM) | 256 (≈ 697 µM) | 256 (≈ 697 µM) | 256 (≈ 697 µM) | 256 (≈ 697 µM) | 128 (≈ 348 µM)
